Values after ≈ are worked out from the molar mass of the structure shown. Where two headings read alike, the source gives them in different places.
Experiments:
[1] = target: T1, E. coli DnaE (DNA polymerase III α-subunit from Escherichia coli) (Escherichia coli, UniProt P10443); assay: In vitro DnaE single enzyme assay (E. coli); type: biochemical
T1 construct: EcDnaE (E. coli DnaE residues 1-1160); 6xHis (N); made in house; host or cells: E. coli BL21(DE3)
In short: (§1)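 His-tagged E. coli DnaE (residues 1-1160, 0.8 μg/ml) or S. aureus DnaE (residues 1-1065, 0.05 μg/ml) incubated 30 min at 30° C. with activated calf thymus DNA, 0.025 mM dATP/dGTP/dCTP and 0.011 mM 3H-dTTP in Tris pH 7.5/Mg acetate. TCA-precipitated labelled DNA counted.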

[2] = target: T2, S. aureus DnaE (DNA polymerase III α-subunit homolog from Staphylococcus aureus) (Staphylococcus aureus, UniProt Q5HF71); assay: biochemical; type: biochemical
T2 construct: SaDnaE (S. aureus DnaE residues 1-1065); 6xHis (N); made in house; host or cells: E. coli BL21-AI
T2 sequence (Q5HF71 1-1065): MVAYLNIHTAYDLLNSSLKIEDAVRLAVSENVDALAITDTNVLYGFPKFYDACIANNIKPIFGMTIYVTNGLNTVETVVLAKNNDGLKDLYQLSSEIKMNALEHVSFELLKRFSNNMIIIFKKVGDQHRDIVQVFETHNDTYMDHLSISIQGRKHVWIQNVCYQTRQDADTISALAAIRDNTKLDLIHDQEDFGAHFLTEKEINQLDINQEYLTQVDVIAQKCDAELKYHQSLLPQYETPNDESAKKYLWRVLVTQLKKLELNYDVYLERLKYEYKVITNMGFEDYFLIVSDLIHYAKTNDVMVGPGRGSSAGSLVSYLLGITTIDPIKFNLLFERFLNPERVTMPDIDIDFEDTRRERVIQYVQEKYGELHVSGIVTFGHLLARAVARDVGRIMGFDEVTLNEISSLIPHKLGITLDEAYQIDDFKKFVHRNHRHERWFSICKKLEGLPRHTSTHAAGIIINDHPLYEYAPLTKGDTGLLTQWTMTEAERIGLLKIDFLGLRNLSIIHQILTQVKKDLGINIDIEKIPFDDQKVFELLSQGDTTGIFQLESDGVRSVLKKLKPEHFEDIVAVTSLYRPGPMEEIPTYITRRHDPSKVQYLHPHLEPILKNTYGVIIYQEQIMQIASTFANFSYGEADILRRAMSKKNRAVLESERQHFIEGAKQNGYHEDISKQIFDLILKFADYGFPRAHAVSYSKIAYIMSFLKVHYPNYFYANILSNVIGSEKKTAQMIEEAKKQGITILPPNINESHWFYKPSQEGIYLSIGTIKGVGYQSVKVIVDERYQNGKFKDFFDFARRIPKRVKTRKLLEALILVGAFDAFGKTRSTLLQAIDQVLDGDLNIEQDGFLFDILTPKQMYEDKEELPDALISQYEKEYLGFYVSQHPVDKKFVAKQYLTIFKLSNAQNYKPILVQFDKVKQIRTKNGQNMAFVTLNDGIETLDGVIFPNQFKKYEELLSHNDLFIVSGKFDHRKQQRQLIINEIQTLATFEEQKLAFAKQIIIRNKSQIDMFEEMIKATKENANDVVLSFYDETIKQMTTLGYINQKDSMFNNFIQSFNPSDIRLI
In short: as §1

[3] = system: Escherichia coli MB5747 (LS 883, tolC); assay: microbe, parasite or virus in culture; type: cell-based; details: * = some reduction of growth versus control at […]; for MIC: Escherichia coli, read-out: E. coli LS883 tolC (MIC), MHII broth
[4] = system: Pseudomonas aeruginosa MB5890 (CB1101, efflux-deleted); assay: microbe, parasite or virus in culture; type: cell-based; details: * = some reduction of growth versus control at […]; for MIC: Pseudomonas aeruginosa, read-out: P. aeruginosa MB5890 efflux-del (MIC), MHII broth
[5] = system: Staphylococcus aureus MB6266 (MRSA COL); assay: Nargenicin antibacterial assay (MIC), S. aureus; type: cell-based; details: * = some reduction of growth versus control at […]; for MIC: Staphylococcus aureus, MRSA, read-out: S. aureus COL (MIC), MHII broth + 50% human serum
[6] = system: Streptococcus pneumoniae MB6357 (CL 2883); assay: Nargenicin antibacterial assay (MIC), S. pneumoniae; type: cell-based; details: * = some reduction of growth versus control at […]; for MIC: Streptococcus pneumoniae, read-out: S. pneumoniae MB2883 (MIC), Isosensitest broth
[7] = read-out: E. coli DnaE IC50 (converted)
[8] = read-out: S. aureus DnaE IC50 (converted)

T1 sequence (P10443 whole entry, the tested form may be a part): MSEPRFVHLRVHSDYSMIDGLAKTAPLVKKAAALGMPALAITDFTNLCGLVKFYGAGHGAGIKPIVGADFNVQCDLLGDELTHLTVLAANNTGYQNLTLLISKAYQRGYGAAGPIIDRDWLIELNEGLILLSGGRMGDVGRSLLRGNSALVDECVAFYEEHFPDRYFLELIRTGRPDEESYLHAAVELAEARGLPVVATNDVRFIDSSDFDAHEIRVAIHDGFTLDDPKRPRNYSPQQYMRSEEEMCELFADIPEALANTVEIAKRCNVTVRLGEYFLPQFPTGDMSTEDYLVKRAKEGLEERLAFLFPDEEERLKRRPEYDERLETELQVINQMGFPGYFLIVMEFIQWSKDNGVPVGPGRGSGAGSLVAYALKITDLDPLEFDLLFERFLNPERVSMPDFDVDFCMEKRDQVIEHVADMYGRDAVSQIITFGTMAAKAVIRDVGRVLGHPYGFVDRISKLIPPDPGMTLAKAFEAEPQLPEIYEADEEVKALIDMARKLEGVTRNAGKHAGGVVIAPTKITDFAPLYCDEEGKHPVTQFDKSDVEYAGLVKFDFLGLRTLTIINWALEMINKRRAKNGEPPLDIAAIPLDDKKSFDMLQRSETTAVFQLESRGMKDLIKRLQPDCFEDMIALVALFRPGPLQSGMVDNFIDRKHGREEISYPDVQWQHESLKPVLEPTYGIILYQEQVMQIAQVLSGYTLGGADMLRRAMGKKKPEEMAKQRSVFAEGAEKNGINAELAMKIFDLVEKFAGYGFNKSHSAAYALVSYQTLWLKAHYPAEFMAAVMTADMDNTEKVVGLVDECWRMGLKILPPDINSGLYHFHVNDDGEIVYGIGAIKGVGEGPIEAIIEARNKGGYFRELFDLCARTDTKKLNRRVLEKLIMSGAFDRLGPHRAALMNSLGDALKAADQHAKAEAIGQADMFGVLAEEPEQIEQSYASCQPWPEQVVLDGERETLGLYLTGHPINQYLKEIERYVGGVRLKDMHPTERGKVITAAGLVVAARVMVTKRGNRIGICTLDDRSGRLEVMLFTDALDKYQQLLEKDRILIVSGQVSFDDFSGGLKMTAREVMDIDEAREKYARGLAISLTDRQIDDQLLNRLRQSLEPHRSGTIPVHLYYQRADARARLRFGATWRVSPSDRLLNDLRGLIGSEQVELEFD

| SMILES | IC50 [1, 7] [µM] | IC50 ([2]; S. aureus DnaE IC50) [µM] | MIC [3] [µg/mL] | MIC [4] [µg/mL] | MIC [5] [µg/mL] | MIC [6] [µg/mL] | IC50 ([1]; E. coli DnaE IC50) [µM] | IC50 [2, 8] [µM] | E. coli DnaE IC50 [1] [µg/mL] | S. aureus DnaE IC50 [2] [µg/mL] | E. coli LS883 tolC (MIC) ([3]; MHII broth) [µg/mL] | P. aeruginosa MB5890 efflux-del (MIC) ([4]; MHII broth) [µg/mL] | S. aureus COL (MIC) ([5]; MHII broth + 50% human serum) [µg/mL] | S. pneumoniae MB2883 (MIC) ([6]; Isosensitest broth) [µg/mL] |
| --- | --- | --- | --- | --- | --- | --- | --- | --- | --- | --- | --- | --- | --- | --- |
| CC[C@@H]1OC(=O)[C@@H](OC)C[C@H]2C=C[C@H]3[C@H]4O[C@]2(/C(C)=C/[C@H]1C)[C@@H]3[C@H](O)[C@@H](C)[C@H]4OC(=O)c1ccc[nH]1 [Example 49] | > 200 | 0.56 | 64 (≈ 128 µM) | > 128 | > 128 | > 128 |  |  |  |  |  |  |  |  |
| CO[C@H]1C[C@H]2C=C[C@@H]3[C@H]4[C@H](O)[C@@H](C)C(=O)[C@@H]3O[C@]42/C(C)=C/[C@@H](C)[C@@H]([C@@H](C)O)OC1=O [Example 202] | > 238 | 78.5 | 128 (≈ 304 µM) | > 128 | > 128 | > 128 |  |  |  |  |  |  |  |  |
| CO[C@H]1C[C@H]2C=CC3C4[C@H](O)[C@@H](C)[C@@H](OC(=O)c5ccc[nH]5)[C@@H]3O[C@]42/C(C)=C/[C@@H](C)[C@@H]([C@@H](C)OC(=O)C(=O)OCc2ccccc2)OC1=O [Example 211] | 2.95 | < 0.00885 | < 0.125 | 16 (≈ 23.6 µM) | 0.5 | > 128 |  |  |  |  |  |  |  |  |
| CO[C@H]1C[C@H]2CC[C@H]3[C@H]4O[C@]2(/C(C)=C/[C@@H](C)[C@@H]([C@@H](C)O)OC1=O)[C@@H]3[C@H](O)[C@@H](C)[C@H]4OC(=O)c1ccc[nH]1 [Example 37, (3R,4S,7S,8aR,10aR,11R,12R,13R,14R,14aS,14bS,E)-14-hydroxy-4-((R)-1-hydroxyethyl)-7-methoxy-1,3,13-trimethyl-6-oxo-3,4,6,7,8,8a,9,10,10a,11,12,13,14,14a-tetradecahydro-11,14b-epoxynaphtho[2,1-e]oxecin-12-yl 1H-pyrrole-2-carboxylate] |  | < 0.0966 | > 8 | 128 (≈ 247 µM) | > 8 | > 128 | > 193 |  |  |  |  |  |  |  |
| C=C1C[C@@H]2C[C@H](OC)C(=O)O[C@H]([C@@H](C)O)[C@H](C)/C=C(\C)[C@]23O[C@H]2[C@H](OC(=O)c4ccc[nH]4)[C@H](C)[C@@H](O)[C@@H]3[C@@H]12 [Example 200] | > 189 | 0.0113 | 2 (≈ 3.78 µM) | 64 (≈ 121 µM) | 8 | 128 (≈ 242 µM) |  |  |  |  |  |  |  |  |
| CO[C@H]1C[C@H]2C=C[C@H]3[C@H]4O[C@]2(/C(C)=C/[C@@H](C)[C@@H]([C@@H](C)O)OC1=O)[C@@H]3[C@H](O)C(C)[C@@H]4NCCN1CCCC1.O=C(O)C(F)(F)F (stereo partly drawn) [Example 157] |  |  | > 128 | > 128 | > 128 | > 128 | > 158 | 3.32 |  |  |  |  |  |  |
| CO[C@H]1C[C@H]2C=C[C@H]3[C@H]4O[C@]2(/C(C)=C/[C@@H](C)[C@@H]([C@@H](C)OC(=O)NCCc2ccccc2)OC1=O)[C@@H]3[C@H](O)[C@@H](C)[C@H]4OC(=O)c1ccc[nH]1 [Example 8] | 45.3 | 0.0679 | > 128 | > 128 | > 128 | > 128 |  |  |  |  |  |  |  |  |
| CO[C@H]1C[C@H]2C=C[C@H]3[C@H]4O[C@]2(/C(C)=C/[C@H](C)[C@@H](c2ccccc2)OC1=O)[C@@H]3[C@H](O)[C@@H](C)[C@H]4OC(=O)c1ccc[nH]1 [Example 53] | 73 | 0.183 | > 128 | > 128 | > 128 | > 128 |  |  |  |  |  |  |  |  |
| COC1CC2C=CC3C4OC2(C(C)=CC(C)C(C(C)OC(=O)NCCN2CCN(C)CC2)OC1=O)C3C(O)C(C)C4OC(=O)c1ccc[nH]1 (stereo not drawn) [Example 24] |  |  | 32 (≈ 46.7 µM) | > 128 | 32 | > 128 | > 146 | 0.00876 |  |  |  |  |  |  |
| CO[C@H]1C[C@H]2C=C[C@H]3[C@H]4O[C@]2(/C(C)=C/[C@@H](C)[C@@H]([C@@H](C)O)OC1=O)[C@@H]3[C@H](O)C(C)[C@@H]4NCc1ccncc1.O=C(O)C(F)(F)F (stereo partly drawn) [Example 154] |  |  | > 128 | > 128 | > 128 | > 128 | > 160 | 112 |  |  |  |  |  |  |
| CO[C@H]1CC2C=C[C@H]3[C@H]4O[C@]2(/C(C)=C/[C@@H](C)[C@@H]([C@@H](C)OC(=O)NN)OC1=O)[C@@H]3[C@H](O)[C@@H](C)[C@H]4OC(=O)c1ccc[nH]1 (stereo partly drawn) [Example 18] | 105 | < 0.0105 | 4 (≈ 6.97 µM) | > 128 | 8 | 128 (≈ 223 µM) |  |  |  |  |  |  |  |  |
| CO[C@H]1C[C@H]2C=CC3C4[C@H](O)[C@@H](C)[C@@H](OC(=O)c5ccc[nH]5)[C@@H]3O[C@]42/C(C)=C/[C@@H](C)[C@@H]([C@@H](C)OC(=O)Nc2nnn[nH]2)OC1=O [Example 65] | 16 | < 0.00957 | 2 (≈ 3.19 µM) | 64 (≈ 102 µM) | 2 | > 128 |  |  |  |  |  |  |  |  |
| CO[C@H]1CC2C=C[C@H]3[C@H]4O[C@]2(/C(C)=C/[C@@H](C)[C@@H]([C@@H](C)OC(=O)C[n+]2ccccc2)OC1=O)[C@@H]3[C@H](O)[C@@H](C)[C@H]4OC(=O)c1ccc[nH]1 (stereo partly drawn) [Example 71] | 18.9 | < 0.00944 | 0.25 | 8 | 0.25 | > 128 |  |  |  |  |  |  |  |  |
| COC1CC2C=CC3C4OC2(C(C)=CC(C)C(C(C)OC(=O)NCCCN2CCN(C)CC2)OC1=O)C3C(O)C(C)C4OC(=O)c1ccc[nH]1 (stereo not drawn) [Example 25] |  |  | 32 (≈ 45.8 µM) | > 128 | 32 | > 128 | > 143 | 0.03 |  |  |  |  |  |  |
| CO[C@H]1C[C@H]2C=C[C@H]3[C@H]4O[C@]2(/C(C)=C/[C@@H](C)[C@@H]([C@@H](C)O)OC1=O)[C@@H]3C(=O)C(C)[C@H]4C[N+](=O)[O-] (stereo partly drawn) [Example 162, (3R,4 S ,7S ,8aS ,10aR,11R,12 S ,14aR,14b S,E)-4-((R)-1-hydroxyethyl)-7-methoxy-1,3,13-trimethyl-12-(nitromethyl)-3 ,4,8,8a,10a,11,12,13-octahydro-11,14b-epoxynaphtho [2,1-e]oxecine-6,14(7H,14aH)-dione] |  |  | > 128 | > 128 | > 128 | > 128 | > 216 | 17.3 |  |  |  |  |  |  |
| CO[C@H]1C[C@H]2C=CC3C4[C@H](O)[C@@H](C)[C@@H](OC(=O)c5ccc[nH]5)[C@@H]3O[C@]42/C(C)=C/[C@@H](C)[C@@H]([C@@H](C)OC(=O)C(=O)NCc2ccncc2)OC1=O [Example 115] |  |  |  |  |  |  |  |  | 9 | <0.006 | 0.5 | 8 | 0.5 | >64 |
| CO[C@H]1C[C@H]2C=C[C@H]3[C@H]4O[C@]2(/C(C)=C/[C@@H](C)[C@@H]([C@@H](C)OC(=O)OCC(CO)CO)OC1=O)[C@@H]3[C@H](O)[C@@H](C)[C@H]4OC(=O)c1ccc[nH]1 [Example 36] | 17 | < 0.00926 | 2 (≈ 3.09 µM) | 64 (≈ 98.8 µM) | 2 | > 128 |  |  |  |  |  |  |  |  |

Source: US9944654B2, “Nargenicin compounds and uses thereof as antibacterial agents” (priority 2014, dated 2018)
